{"source": "ChEMBL document CHEMBL1148246", "about": "“Differential modulation of the antifungal activity of amphotericin B by natural and ent-cholesterol” (2004)", "format_in_all_cases": "functional", "key": {"Candida albicans [1]": {"test_system": "Candida albicans", "experiment": "Residual antifungal activity of amphotericine B was determined against Candida albicans after addition of 60 ppm of cholesterol to the culture"}, "Candida albicans [2]": {"test_system": "Candida albicans", "experiment": "Reduction in antifungal activity of amphotericine B was determined against Candida albicans after addition of 60 ppm of cholesterol to the culture"}, "Candida albicans [3]": {"test_system": "Candida albicans", "experiment": "Reduction in antifungal activity of amphotericine B was determined against Candida albicans after addition of 60 ppm of compound to the culture"}, "Candida albicans [4]": {"test_system": "Candida albicans", "experiment": "Residual antifungal activity of amphotericine B was determined against Candida albicans after addition of 30 ppm of ent-cholesterol to the culture; (Range 14-24 mm)"}}, "note": "“And” between values parts separate entries of the source, which are not always exact repeats. Equal values may be shown once."}
{"smiles": "C[C@@H]1[C@H](O)[C@@H](C)/C=C/C=C/C=C/C=C/C=C/C=C/C=C/[C@H](O[C@@H]2O[C@H](C)[C@@H](O)[C@H](N)[C@@H]2O)C[C@@H]2O[C@](O)(C[C@@H](O)C[C@@H](O)[C@H](O)CC[C@@H](O)C[C@@H](O)CC(=O)O[C@H]1C)C[C@H](O)[C@H]2C(=O)O", "note": "[AMPHOTERICIN B]", "values": [{"measurement": "Antifungal activity", "setting": "Candida albicans [1]", "value": 73, "unit": "%"}, {"measurement": "Antifungal activity", "setting": "Candida albicans [2]", "value": 82, "unit": "%"}, {"measurement": "Antifungal activity", "setting": "Candida albicans [3]", "value": "76% and 62%"}, {"measurement": "Antifungal activity", "setting": "Candida albicans [4]", "value": 87, "unit": "%"}]}
